In US20230310427A1, “NEW THERAPEUTIC USE OF RILPIVIRINE” (UNIVERSITY OF SOUTH AUSTRALIA, priority 2020, published 2023):

What was measured:
[1] = system: T47D cells; experiment: Cell cycle analysis (flow cytometry); type: cell-based; details: 48-hour treatment
Description: (§1) The effect of Rilpivirine on cell cycle distribution in different cancer cell lines was evaluated by flow cytometric analysis. Briefly, cells were seeded in 6-well plates at a density of 6 × 10^4 cells/well. All plates were incubated overnight at 37° C. in a 5% CO2 incubator. Following the incubation, the test compounds (Rilpivirine (Ril) and comparators, Alisertib (Ali; a known Aurora A inhibitor) and Etravirine (Etra; 4-[[6-amino-5-bromo-2-[(4-cyanophenyl)amino]-4-pyrimidinyl]oxy]-3,5-dimethylbenzonitrile - a structurally similar NNRTI drug compound sold under the brand name Intelence® (Janssen Therapeutics)) were added to individual wells and the plates were incubated at same condition for 24 h, 48 h or 72 h. Subsequently, the medium was removed from the wells and transferred into fluorescence-activated cell sorting (FACS) tubes. The adherent cells remaining were trypsinised, re-suspended in media and transferred into the FACS tubes. Cells were centrifuged, fixed with cold 70% ethanol for 15 min and pelleted. The pelleted cells were then re-suspended in 200 µL propidium iodide (PI) solution (50 µg/mL propidium iodide, 0.1 mg/mL ribonuclease A, 0.1% sodium citrate, 0.1% triton X-100) and incubated in the dark for 1.5 h at room temperature. Following the incubation, 200 µL PBS was added. Samples were assessed using a flow cytometer (Cytoflex; Beckman Coulter Inc, Brea, CA, United States of America) and data were analysed using the Cytexpert software.

[2] = system: PC3 cells; experiment: Cell cycle analysis (flow cytometry); type: cell-based; details: 48 hour treatment
Description: as §1

[3] = target: T1, Aurora A kinase (Homo sapiens, UniProt O14965); experiment: Kinase assay; type: biochemical; details: kinase inhibition profiling (FIG. 2), concentration not given
T1 construct: purchased Promega (ADP-Glo kits) or Reaction Biology Corporation / Eurofins discovery services (external)
T1 sequence (O14965 1-403): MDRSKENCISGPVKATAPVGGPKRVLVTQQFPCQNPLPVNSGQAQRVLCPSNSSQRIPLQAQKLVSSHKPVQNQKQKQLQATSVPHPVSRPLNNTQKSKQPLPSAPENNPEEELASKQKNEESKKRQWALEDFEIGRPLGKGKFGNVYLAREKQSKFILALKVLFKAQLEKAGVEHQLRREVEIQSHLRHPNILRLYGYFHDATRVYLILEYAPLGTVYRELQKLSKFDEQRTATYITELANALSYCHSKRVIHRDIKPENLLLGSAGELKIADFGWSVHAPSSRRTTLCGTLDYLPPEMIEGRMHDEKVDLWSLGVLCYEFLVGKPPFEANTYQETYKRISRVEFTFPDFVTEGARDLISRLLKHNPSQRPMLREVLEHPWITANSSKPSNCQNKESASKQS
Description: (§2) The ability of compounds to inhibit kinases was measured using ADP-Glo^Tm assay kits (Promega, Madison, WI, United States of America) or externally using radioisotope based assays (Reaction Biology Corporation, Malvern, PA, United States of America and Eurofins discovery services, France). The ADP-Glo assay was performed as reported previously (Basnet SK et al., Mol Pharmacol 88(5):935-948, 2015).The assay plate was read for luminescence using Envision multi-label plate reader (PerkinElmer, Waltham, MA, United States of America). Half-maximal inhibition (IC50) values were determined from a plot of percent residual activity versus concentration of test compounds using GraphPad Prism software. Ki values were calculated from IC50 values using the Cheng-Prusoff equation: Ki= IC50/ [1 + ([ATP]/Km ATP)], where [ATP] is the ATP concentration used for the IC50 determination and Km ATP for each kinase is determined from an individual experiment.

[4] = target: T2, Aurora B kinase (Homo sapiens, UniProt Q96GD4); experiment: Kinase assay; type: biochemical; details: kinase inhibition profiling (FIG. 2), concentration not given
T2 construct: purchased Promega (ADP-Glo kits) or Reaction Biology Corporation / Eurofins discovery services (external)
T2 sequence (Q96GD4 whole entry): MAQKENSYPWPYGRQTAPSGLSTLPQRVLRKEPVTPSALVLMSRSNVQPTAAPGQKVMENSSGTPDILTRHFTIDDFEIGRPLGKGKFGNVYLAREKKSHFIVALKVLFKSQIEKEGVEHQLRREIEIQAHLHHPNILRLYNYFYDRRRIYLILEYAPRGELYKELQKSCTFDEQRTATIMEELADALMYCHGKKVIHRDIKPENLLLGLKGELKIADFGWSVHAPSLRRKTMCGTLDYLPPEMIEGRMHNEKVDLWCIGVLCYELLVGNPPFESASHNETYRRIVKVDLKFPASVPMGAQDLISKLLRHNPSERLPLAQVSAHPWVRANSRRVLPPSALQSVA
Description: as §2

SMILES | cell cycle arrest ([1]; 10 µM) | cell cycle arrest ([2]; 10 µM) | inhibitory activity against Aurora A [3] | inhibitory activity against Aurora B [4] | cell cycle arrest ([1]; p53 mutant) | cell cycle arrest ([2]; p53 mutant)
Cc1cc(C#N)cc(C)c1Oc1nc(Nc2ccc(C#N)cc2)nc(N)c1Br [Etravirine, 4-[[6-amino-5-bromo-2-[(4-cyanophenyl)amino]-4-pyrimidinyl]oxy]-3,5-dimethylbenzonitrile] | no G2/M arrest | did not induce G2/M arrest | no inhibitory activity | no inhibitory activity |  | 
COc1cc(Nc2ncc3c(n2)-c2ccc(Cl)cc2C(c2c(F)cccc2OC)=NC3)ccc1C(=O)O [Alisertib] |  |  |  |  | arrest T47D breast cancer cells in G2/M phase | induce G2/M arrest
